BindingDB's records for doi:10.1016/j.bmc.2013.02.056 (Ludwig-Maximilians-University Munich, 2013)

What was measured:
[1] = molecular target: T1, Sodium- and chloride-dependent GABA transporter 2 (Mus musculus, UniProt P31649); test: Inhibition of mouse GAT2 expressed in HEK cells assessed as inhibition of [3H]-GABA uptake after 25 mins by liquid scintillation counting analysis
T1 sequence (P31649 whole entry): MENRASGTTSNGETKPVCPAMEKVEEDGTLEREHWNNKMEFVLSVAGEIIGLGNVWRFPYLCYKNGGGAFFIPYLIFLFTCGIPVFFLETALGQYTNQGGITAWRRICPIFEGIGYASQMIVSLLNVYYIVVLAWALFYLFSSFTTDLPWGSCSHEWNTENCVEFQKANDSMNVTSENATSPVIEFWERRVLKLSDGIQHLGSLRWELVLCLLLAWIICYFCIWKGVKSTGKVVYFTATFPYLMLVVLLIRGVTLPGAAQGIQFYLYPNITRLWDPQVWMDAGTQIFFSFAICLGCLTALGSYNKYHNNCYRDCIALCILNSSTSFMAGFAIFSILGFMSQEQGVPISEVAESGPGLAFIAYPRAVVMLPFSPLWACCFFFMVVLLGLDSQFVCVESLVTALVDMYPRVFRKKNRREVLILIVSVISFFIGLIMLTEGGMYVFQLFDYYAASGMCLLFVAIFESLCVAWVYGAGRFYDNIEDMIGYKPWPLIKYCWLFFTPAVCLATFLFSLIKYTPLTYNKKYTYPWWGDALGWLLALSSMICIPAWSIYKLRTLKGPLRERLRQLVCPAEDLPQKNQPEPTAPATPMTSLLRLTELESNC

[2] = molecular target: T2, Sodium- and chloride-dependent GABA transporter 3 (Mus musculus, UniProt P31650); test: Inhibition of mouse GAT3 expressed in HEK cells assessed as inhibition of [3H]-GABA uptake after 25 mins by liquid scintillation counting analysis
T2 sequence (P31650 whole entry): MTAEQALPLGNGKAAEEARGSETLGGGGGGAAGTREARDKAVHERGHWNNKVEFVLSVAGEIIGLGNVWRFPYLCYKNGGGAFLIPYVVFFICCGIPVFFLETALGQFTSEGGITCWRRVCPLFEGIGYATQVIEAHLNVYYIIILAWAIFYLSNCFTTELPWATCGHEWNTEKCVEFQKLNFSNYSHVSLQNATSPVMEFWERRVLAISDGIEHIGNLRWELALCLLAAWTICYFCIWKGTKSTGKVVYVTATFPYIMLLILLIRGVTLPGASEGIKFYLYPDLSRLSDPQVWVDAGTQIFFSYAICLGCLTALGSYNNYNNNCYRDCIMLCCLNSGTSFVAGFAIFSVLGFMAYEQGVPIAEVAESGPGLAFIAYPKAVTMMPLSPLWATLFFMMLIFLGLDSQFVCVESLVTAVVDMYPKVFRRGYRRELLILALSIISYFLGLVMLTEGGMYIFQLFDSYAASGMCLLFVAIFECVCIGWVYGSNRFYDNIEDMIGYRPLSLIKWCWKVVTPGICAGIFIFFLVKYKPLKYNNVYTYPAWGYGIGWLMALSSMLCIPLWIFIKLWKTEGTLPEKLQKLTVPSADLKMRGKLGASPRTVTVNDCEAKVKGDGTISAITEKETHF

IC50 [1] [µM]	IC50 [2] [µM]	SMILES
60.3	339	O=C(c1cccc(F)c1)c1ccc(F)cc1/C=C/OCCN1CCCC(C(=O)O)C1 (centres undefined)
	28.2	O=C(O)C1CCCN(CCO/C=C\c2cc(F)ccc2Cc2ccccc2F)C1 (centres undefined)
	34.7	O=C(O)C1CCCN(CCO/C=C\c2ccc(F)cc2Cc2ccc(F)cc2)C1 (centres undefined)
	37.2	O=C(O)C1CCCN(CCO/C=C/c2ccccc2Cc2ccccc2)C1 (centres undefined)

More lines, now with the values behind:

SMILES	IC50 [1] [µM]	IC50 [2] [µM]
O=C(c1ccccc1F)c1cc(F)ccc1/C=C\OCCN1CCCC(C(=O)O)C1 (centres undefined)	66.1	
O=C(O)C1CCCN(CCO/C=C\c2cc(F)ccc2Cc2ccc(F)cc2)C1 (centres undefined)	91.2	50.1
O=C(O)C1CCCN(CCO/C=C\c2cc(F)ccc2Cc2cccc(F)c2)C1 (centres undefined)		20
O=C(O)C1CCCN(CCO/C=C\c2ccc(F)cc2Cc2ccccc2F)C1 (centres undefined)		19.5
O=C(c1ccccc1F)c1cc(F)ccc1/C=C/OCCN1CCCC(C(=O)O)C1 (centres undefined)	141	372
O=C(O)[C@@H]1CCCN(CCC=C(c2ccccc2)c2ccccc2)C1 [(R)-1-(4,4-Diphenyl-but-3-enyl)-piperidine-3-carboxylic acid]	372	195
